Patent US20240174618A1, “SUBSTITUTED (2-HETEROARYLOXYPHENYL)SULFONATES, SALTS THEREOF AND THEIR USE AS HERBICIDAL AGENTS” (Bayer Aktiengesellschaft, priority 2021, published 2024)

Columns and labels:
Format in all cases: in vivo
Viola tricolor (VIOTR) [1] = experiment: E. Herbicidal post-emergence efficacy, VIOTR
Outline: (§1)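 Visual scoring against untreated plants was done roughly 3 weeks after spraying (0% = no effect, 100% = plants dead). Spray application at 320 g/ha or lower, 600 l/ha water with 0.5% additive, was made onto green parts of one-leaf-stage greenhouse plants grown 2-3 weeks in sandy loam.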

[2] = test system: Amaranthus retroflexus (AMARE); experiment: E. Herbicidal post-emergence efficacy, AMARE
Outline: as §1

[3] = test system: Amaranthus retroflexus (AMARE); experiment: C. Herbicidal pre-emergence efficacy, AMARE; conditions: scored after about 3 weeks
Outline: (§2)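 Pre-emergence test: formulated compounds sprayed as aqueous suspension or emulsion with 0.5% additive at 600 l/ha onto soil covering sown seeds, at rates corresponding to 320 g/ha or less. After about 3 weeks in greenhouse, efficacy scored visually as percent versus untreated controls (100% = plants dead).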

Zea mays (ZEAMX) = experiment: D. Pre-emergence effect on useful plants, ZEAMX; conditions: useful plant
Text: (§3) Seeds of monocotyledonous and dicotyledonous weed plants and crop plants were placed in plastic or organic planting pots and covered with soil. The compounds of the invention, formulated in the form of wettable powders (WP) or as emulsion concentrates (EC), were then applied to the surface of the covering soil as aqueous suspension or emulsion with addition of 0.5% additive at a water application rate equivalent to 600 l/ha (converted). After the treatment, the pots were placed in a greenhouse and kept under good growth conditions for the test plants. After about 3 weeks, the efficacy of the preparations was scored visually in comparison with untreated controls as percentages. For example, • 100% efficacy=plants have died, • 0% efficacy=like untreated control plants.
(§4) Tables D1a to D5b below show the effects of selected compounds of the general formula (I) according to table 1 on various useful plants at an application rate corresponding to 320 g/ha or less, which were obtained by the experimental procedure mentioned above.

Kochia scoparia (KCHSC) [4] = experiment: C. Herbicidal pre-emergence efficacy, KCHSC
Text: as §3
Tables C1a to C14b below show the effects of selected compounds of the general formula (I) according to table 1 on various harmful plants at an application rate corresponding to 320 g/ha or less, which were obtained by the experimental procedure mentioned above.

[5] = test system: Triticum aestivum (TRZAS); experiment: F. Post-emergence effect on useful plants, TRZAS; conditions: useful plant, application rate 80 g/ha
Outline: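 Visual efficacy rating versus untreated plants, from 0% (no effect) to 100% (plants died), made about 3 weeks after post-emergence treatment. Formulated compounds (WP or EC, 0.5% additive, 600 l/ha water) were sprayed onto greenhouse-grown crops at the one-leaf stage, 2-3 weeks after sowing.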

[6] = test system: Triticum aestivum (TRZAS); experiment: D. Pre-emergence effect on useful plants, TRZAS; conditions: useful plant
Text: as §3, §4

Veronica persica (VERPE) = experiment: E. Herbicidal post-emergence efficacy, VERPE
Outline: as §1

Kochia scoparia (KCHSC) [7] = experiment: E. Herbicidal post-emergence efficacy, KCHSC
Protocol: (§5) Seeds of monocotyledonous and dicotyledonous weeds and crop plants were placed in sandy loam in plastic or organic planting pots, covered with soil and cultivated in a greenhouse under controlled growth conditions. 2 to 3 weeks after sowing, the test plants were treated at the one-leaf stage. The compounds of the invention, formulated in the form of wettable powders (WP) or as emulsion concentrates (EC), were then sprayed onto the green parts of the plants as aqueous suspension or emulsion with addition of 0.5% additive at a water application rate of 600 l/ha (converted). After the test plants had been kept in the greenhouse under optimum growth conditions for about 3 weeks, the activity of the preparations was rated visually in comparison to untreated controls.
(§6) For example, • 100% efficacy=plants have died, • 0% action=like untreated control plants.
(§7) Tables E1a to E12b below show the effects of selected compounds of the general formula (I) according to table 1 on various harmful plants at an application rate corresponding to 320 g/ha or less, which were obtained by the experimental procedure mentioned above.

Brassica napus (BRSNW) = experiment: D. Pre-emergence effect on useful plants, BRSNW; conditions: useful plant, application rate 80 g/ha
Text: as §3, §4

Viola tricolor (VIOTR) [8] = experiment: C. Herbicidal pre-emergence efficacy, VIOTR; conditions: application rate 320 g/ha
Outline: as §2

[9] = test system: Pharbitis purpurea (PHBPU); experiment: E. Herbicidal post-emergence efficacy, PHBPU
Protocol: as §5, §6, §7

N#Cc1cccc(Oc2ncc(Cl)cn2)c1OS(=O)(=O)CC1CC1(Cl)Cl (stereo not drawn) [Example I-78]
Post-emergence efficacy against VIOTR in % (Viola tricolor (VIOTR) [1]; application rate 80 g/ha): 90% | Post-emergence efficacy against VIOTR in % (Viola tricolor (VIOTR) [1]; application rate 320 g/ha): 100% | Post-emergence efficacy against AMARE in % ([2]; application rate 80 g/ha): 90% | Post-emergence efficacy against AMARE in % ([2]; application rate 320 g/ha): 100% | Pre-emergence efficacy against AMARE ([3]; 80 g/ha): 100% | Pre-emergence efficacy against AMARE ([3]; 320 g/ha): 100% | Pre-emergence efficacy against ZEAMX in % (Zea mays (ZEAMX); application rate 80 g/ha): 0% | Pre-emergence efficacy against ZEAMX in % (Zea mays (ZEAMX); application rate 320 g/ha): 20% | Pre-emergence efficacy against KCHSC in % (Kochia scoparia (KCHSC) [4]; application rate 80 g/ha): 100% | Pre-emergence efficacy against KCHSC in % (Kochia scoparia (KCHSC) [4]; application rate 320 g/ha): 100% | Post-emergence efficacy against TRZAS in % [5]: 0% | Pre-emergence efficacy against TRZAS in % ([6]; application rate 80 g/ha): 0% | Pre-emergence efficacy against TRZAS in % ([6]; application rate 320 g/ha): 0% | Post-emergence efficacy against VERPE in % (Veronica persica (VERPE); application rate 80 g/ha): 100% | Post-emergence efficacy against VERPE in % (Veronica persica (VERPE); application rate 320 g/ha): 100% | Post-emergence efficacy against KCHSC in % (Kochia scoparia (KCHSC) [7]; application rate 80 g/ha): 100% | Post-emergence efficacy against KCHSC in % (Kochia scoparia (KCHSC) [7]; application rate 320 g/ha): 100% | Pre-emergence efficacy against BRSNW in % (Brassica napus (BRSNW)): 20% | Pre-emergence efficacy against VIOTR in % (Viola tricolor (VIOTR) [8]): 100% | Post-emergence efficacy against PHBPU in % ([9]; application rate 80 g/ha): 90% | Post-emergence efficacy against PHBPU in % ([9]; application rate 320 g/ha): 100%
